“Also recorded” adds a separate entry of the source. Non-standard residues stand in square brackets, D forms with d. Residues, ends and D or L forms follow the SMILES beside them. *: point of attachment. Myristoyl = CCCCCCCCCCCCCC(=O)*; NH(CH2)4NH2 = NCCCCN* Some results are limits rather than exact numbers.

Data set [1] has as its system HepG2 cells. Kind of data set: Cell numbers of HepG2 after compound treatment. Format: cell-based, human. Particulars: HepG2, 1.5 × 10^5 cells/well plated, compound 5 μg/mL, 3 h; mean of n = 3. As for the experimental part: (§1) Comparing the concentration of compounds (7, 10, 10a) in extracellular and intracellular after the HepG2 cell line dealt with compounds. HepG2 cells were plated in six-well plates at a density of 1.5 × 10^5 cells/well and grew overnight. After cell treated with compounds (5 μg/mL) for 3 h, the compounds were extracted with MeOH for cells culture medium and cells separately as followed the reported method. The compounds were quantified by LC‒MS (5%‒95% ACN in 15 min). The cell numbers of HepG2 with the compounds treatments was determined. […]
(§2) To determine whether the difference in bioactivity of products (with or without Put moiety) is due to variations in cellular uptake, we treated hepatoma cell line HepG2 with compounds 7 (C12 acyl), 10 (C14 acyl), and 10a (C14 acyl and without Put) (Supplementary Fig. 33c). The cells were treated for 3 h, and then culture medium and cells were extracted separately. LC-MS was used to detect and quantify the compounds.
(§3) At lower concentrations (5000 ng/mL, and 10,000 ng in total for each group), and […]
(§4) may be contributing to the differences in antitumor activity (Supplementary Fig. 33b).
(§5) This could be due to differences in the speed of cellu lar uptake or differences in drug metabolism rate, requiring further experimental investigation.

Data set [2] concerns human lung adenocarcinoma cell A549. The experiment in a line: MTT cytotoxicity assay, A549. Format: cell-based. Particulars: for IC50: 24 h. An excerpt: (§6) The two human acute lymphoblastic leukemia cells K562 and Kasumi, two human breast adenocarcinoma cells MCF7 and MDA-MB-231, human hepatoma cell HepG-2, human lung adenocarcinoma cell A549, human gastric cancer cell SGC-7901, human colon cancer cell HCT-116, human ovarian cancer cell line SKOV3, or human lung epithelial normal cell 2B were obtained from Beyotime Biotechnology and utilized to test the cytotoxicity of compounds by MTT assays as previous study. The anti-inflammatory effect of the compounds was detected by the influence on the increase in the level of nitric oxide caused by lipopolysaccharide (LPS) based on the classic Griess method. RAW 264.7 cells (Shanghai Institutes for Biological Science) were seeded in 96-well plates and incubated for 24 h. Then, cells were treated with compounds 29, 29a, 31, and 31a (0-80 μM) for 30 min, followed by co-treatment with LPS ([…]) for another 24 h. The Nitric Oxide assay kit with Griess reagents (Beyotime, Lot: S0021, Shanghai, China) was used to examine cellular supernatant nitrite accumulation, which represents cellular NO levels. The OD value of 540 nm absorbance was detected with a microplate reader. Their authentication in the laboratory was performed regularly based on morphology and gene/protein expression. The tested micro-organisms including Gram-negative bacteria E. coli ATCC 35218 and Pseudomonas aeruginosa ATCC 27853, and Gram-positive bacteria Staphylococcus aureus ATCC 29213 and B. subtilis ATCC 6633, and fungi Candida albicans, Rhizoctonia solani and Aspergillus fumigatus were treated with different concentrations of compounds (1 μM, 10 μM, 100 μM) using Bauer-Kirby disk diffusion method to evaluate the antimicrobial activities.
(In general: Tetrazolium assays rely on reduction of a dye to a coloured formazan, in cell work by metabolically active cells.)

The next data set relates to native host DSM 7029. The experiment in a line: Inhibition zone test on the native host DSM 7029. Format: cell-based, Schlegelella brevitalea DSM 7029. The conditions noted are these: same method as for the seven tested strains.
Description: as §6, with “The tested micro-organisms including Gram-negative bacteria E. coli ATCC 35218 and Pseudomonas aeruginosa ATCC 27853, and Gram-positive bacteria Staphylococcus aureus ATCC 29213 and B. subtilis ATCC 6633, and fungi Candida albicans, Rhizoctonia solani and Aspergillus fumigatus were treated with different concentrations of compounds (1 μM, 10 μM, 100 μM) using Bauer-Kirby disk diffusion method to evaluate the antimicrobial activities.” left out

For data set [3], the system named is human acute lymphoblastic leukemia cells K562. The experiment in a line: cells. Format: cell-based. The conditions noted are these: 24 h.
Description: as §6

Data set [4] concerns human breast adenocarcinoma cells MCF7. Kind of data set: cells. Format: cell-based. Particulars: 24 h.
Description: as §6

Data set [5] concerns human lung epithelial normal cell 2B. The experiment in a line: cells. Format: cell-based. The conditions noted are these: 24 h.
Description: as §6

Data set [6] has as its system human breast adenocarcinoma cells MDA-MB-231. The experiment in a line: cells. Format: cell-based. The conditions noted are these: 24 h.
Description: as §6

For data set [7], the system named is human hepatoma cell HepG-2. The experiment in a line: cells. Format: cell-based. The conditions noted are these: 24 h.
Description: as §6

Data set [8] concerns human colon cancer cell HCT-116. The experiment in a line: cells. Format: cell-based. Particulars: 24 h.
Description: as §6

In data set [9] the test system is human gastric cancer cell SGC-7901. The experiment in a line: cells. Particulars: 24 h. Format: cell-based.
Description: as §6

The subject of data set [10] is S. brevitalea DSM 7029 wild type. Kind of data set: Biofilm formation of DSM 7029 wild type with compounds (crystal violet). Format: cell-based, Schlegelella brevitalea DSM 7029. Particulars: crystal violet staining. As for the experimental part: (§7) The growth curve was tested by Bioscreen C (Labsystems, Finland) as follow. Overnight culture was inoculated into 400 μL fresh CYMG medium in the ratio of 1:100 (the concentration of compounds was 0.1 μg/μL) and shook in normal speed. The OD600 value was gained in every hour for 42 h in total. Biofilm formation was measured at 18 h and 36 h respectively, as reported previously. In brief, the free-floating cells were removed, and the microtitre plate was washed with PBS (pH 7.4) after incubation for 18 h and 36 h. The biofilm was stained by adding 200 µL of crystal violet (0.1%) solution. Crystal violet solution was removed after 15 min and 200 µL of ethanol (95%) was added. The absorbance at OD600 was read using a microplate reader (Infinite M200, Tecan, Männedorf, Switzerland). Meanwhile, free-floating cells were used to test the secretion of pigment. The bacteria were removed and the supernatant was measured at OD600.

For data set [11] the test system is unchanged. The experiment in a line: Growth curve of DSM 7029 wild type with compounds (Bioscreen C). Format: cell-based, Schlegelella brevitalea DSM 7029. The conditions noted are these: CYMG medium. Here is the method:
as §7

Data set [12] is described as follows: Solubility in solvents (observation). Format: physicochemical. The conditions noted are these: observation in water, methanol, acetonitrile, DMSO. An excerpt:
Putrescine is also a precursor of some specialized compounds, such as industrial polyamide nylon 4,6[33] and siderophore alcaligin[55]. To clarify the function of the Put moiety of glidonins, we synthesized lipopeptide 10a without the Put group.

The test system of the next data set is human cells Kasumi. The experiment in a line: MTT cytotoxicity assay, Kasumi. Particulars: 24 h. Format: cell-based.
Description: as §6

The subject of another data set is tumor lines. Kind of data set: MTT cytotoxicity assay, statements on the whole panel. Format: cell-based, human. Particulars: MTT assay, panel of tumor cell lines.
Description: as §6

The subject of data set [13] is HepG2 cells. Kind of data set: Extracellular and intracellular compound in HepG2 cells (LC-MS). Format: in vitro ADME, human. The conditions noted are these: 3 h; for Intracellular compound, Average / Extracellular compound, Average: HepG2, six-well plates, 5 μg/mL (10,000 ng in total), mean of n = 3; for Intracellular compound, Average: cells extracted with MeOH; for Extracellular compound, Average: culture medium extracted with MeOH. Here is the method:
as §1, §2, §3, §4, §5

With `CCCCCCCCCCCCCC(=O)N[C@H](CCSC)C(=O)N[C@H](CC(N)=O)C(=O)N1CCC[C@H]1C(=O)N[C@H](C(=O)N[C@H](Cc1ccccc1)C(=O)N1CCC[C@H]1C(=O)N[C@@H](Cc1c[nH]c2ccccc12)C(=O)N[C@@H](C(=O)N[C@@H](C)C(=O)N[C@H](C)C(=O)N[C@@H](CO)C(=O)N[C@@H](C)C(=O)NCCCCN)C(C)C)C(C)C` [Compound 10, Glidonin J] (Myristoyl-[dM][dN]PV[dF]PW[dV]A[dA]SA-{NH(CH2)4NH2}), the “The cell numbers, Average” value in the data set with HepG2 cells [1] is listed as 1303333. Moreover, the IC50 was 7.15 ± 0.47 µM in [2]; 7.2 ± 0.79 µM in data set [3]; over 20 µM in data set [4]; 11.8 ± 0.15 µM in data set [5]; 7.2 ± 0.79 µM in [6]; 6.68 µM in [7]. The IC50 in data set [8] is over 20 µM; in data set [9], over 20 µM; in the data set with human cells Kasumi it was 1.39 µM. For the same molecule, in the data set on native host DSM 7029, the “inhibition of native host DSM 7029, inhibition zone method” value is reported as “no inhibition”. In addition, the “effect on biofilm formation of DSM 7029 wild type in words” value in [10] is given as “increased biofilm formation”. For the same molecule, the “effect on growth of DSM 7029 wild type in words” value in [11] (compound 0.1 μg/μL, OD600 every hour for 42 h, Bioscreen C) was “weak inhibition of growth; also recorded: obviously inhibit the growth”. Also, in data set [11] (control OD600 0.6), the “OD600 of wild type DSM 7029 with addition of compounds” value was 0.4. Further, in [12], the solubility in words result was “easily soluble in water, methanol and acetonitrile”. Further, in the data set with tumor lines, the “cytotoxic / antitumor activity in words” value is recorded as “broad-spectrum cytotoxicity”. Moreover, the “total quantities (intracellular plus extracellular) in words” value in the data set with HepG2 cells [13] (HepG2, 5000 ng/mL, compared to 10a) is listed as “lower total quantities”. The “Intracellular compound, Average” value with HepG2 cells [13] worked out at 6.078 ng. Besides, the “Extracellular compound, Average” value with HepG2 cells [13] is 1078.84 ng.
Regarding `CCCCCCCCCCCCCC(=O)N[C@H](CCSC)C(=O)N[C@H](CC(N)=O)C(=O)N1CCC[C@H]1C(=O)N[C@H](C(=O)N[C@H](Cc1ccccc1)C(=O)N1CCC[C@H]1C(=O)N[C@@H](Cc1c[nH]c2ccccc12)C(=O)N[C@@H](C(=O)N[C@@H](C)C(=O)N[C@H](C)C(=O)N[C@@H](CO)C(=O)N[C@@H](C)C(=O)O)C(C)C)C(C)C` [Compound 10a] (Myristoyl-[dM][dN]PV[dF]PW[dV]A[dA]SA-OH), the IC50 in [2], in data set [5] and in [7] was over 20 µM in each case. In data set [2] (MTT assay), the “cytotoxic / antitumor activity against A549 in words” value is recorded as “lower than those of 10”. The solubility in words entry in [12] is listed as “soluble only in dimethyl sulfoxide (DMSO)”. Moreover, in the data set with HepG2 cells [13], the “Intracellular compound, Average” value amounted to 11.984 ng. The “Extracellular compound, Average” value in the data set with HepG2 cells [13] was 7245.41 ng.

The IC50 is the concentration that gives 50% inhibition.
